Laboratory results reported in patent US12214006B2, “Traditional chinese medicine ointment for preventing and treating mastitis in dairy cows, and preparation method thereof” (Hunan University of Science and Engineering, priority 2022, dated 2025).
No end group written: not given here.

How the values were obtained:
[1] = system: Staphylococcus aureus; assay: Filter paper bacteriostatic circle test, Staphylococcus aureus; assay type: cell-based; conditions: 20 μL of liquid medicine diluted by 10 times on 6.5 mm filter paper, 37° C., 24 hours
Description: (§1) In order to confirm the above conjecture, the application verifies the antibacterial effect of the traditional Chinese medicine concentrated solution prepared in each embodiment, and the method is as follows: • (1) taking Staphylococcus aureus and Escherichia coli grown on ordinary nutrient agar plates, dipping a small number of colonies with an inoculating loop, inoculating colonies into 5 mL of Mueller-Hinton (MH) broth, and performing shake culture at 37° C. for 6 hours at 200 r/min; taking bacterial liquid in logarithmic growth period and diluting the bacterial liquid with sterilized physiological saline until the bacterial content is 1-2×10^8 CFU/ml; diluting with sterilized physiological saline for 1000 times for later use; • (2) making a round filter paper with a diameter of 6.5 mm with a puncher, and dry-heat sterilizing it; first, evenly inoculating the bacterial liquid obtained in step (1) into a nutrient agar culture dish, then attaching the sterilized round filter paper to the surface of agar, transferring 20 μL of liquid medicine (diluted by 10 times) with a micropipette gun, dropping the liquid medicine in the center of the round filter paper, culturing it at 37° C. for 24 hours, and measuring the diameter of the bacteriostatic circle in which different liquid medicines are dropped.

[2] = system: Escherichia coli; assay: Filter paper bacteriostatic circle test, Escherichia coli; assay type: cell-based; conditions: 20 μL of liquid medicine diluted by 10 times on 6.5 mm filter paper, 37° C., 24 hours
Description: as §1

[3] = system: dairy cows with mastitis; assay: Therapeutic effect on dairy cows with mastitis (cure judged by sodium hydroxide curdled milk test); assay type: in vivo; conditions: ointments applied externally 2 g each time, twice a day for 5 days, control perfused with penicillin 100,000 IU, tested one day after stopping
From the text: Fifty dairy cows with mastitis detected by Shanghai Mastitis Test (SMT) are selected from a dairy farm in Hunan Province, of which 20 cows are externally coated with the traditional Chinese medicine ointment for preventing and treating mastitis in dairy cows prepared in embodiment 1 and 20 cows are externally applied with the traditional Chinese medicine ointment for preventing and treating mastitis in dairy cows prepared in comparative example 1, with the dosage of 2 g each time, twice a day for 5 days. The remaining 10 cows are perfused with penicillin 100,000 IU after all the milk is discharged from their breasts, as a control group.
Cure standard: one day after stopping the ointments, if curdled milk is negative by the sodium hydroxide test, the cows are judged to be cured.

Substance	Diameter of bacteriostatic circle of Staphylococcus aureus (mm) [1]	Diameter of bacteriostatic circle of Escherichia coli (mm) [2]	Cure rate (%) [3]	Cows (head) with curdled milk being negative by sodium hydroxide test ([3]; 20, 20 and 10 cows per group)
FFRKVLKLIRKIWR [1 from Hunan University of Science and Engineering, preparation per CN111529683A]	15.3 mm	14.7 mm		
penicillin [Control group]			80%	8 head
